Measurements published in PubChem BioAssay (NCI).
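Method: 48-hour compound exposure of cells in 96-well plates, five concentrations, linear interpolation of endpoints. GI50 marks 50% less growth. TGI denotes the concentration required for complete inhibition of growth.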

Assays:
Assay in all cases: NCI tumour cell line growth inhibition, 48 h
[1] = system: A549 NSCLC
[2] = system: SK-OV-3 ovarian
[3] = system: U251 CNS
[4] = system: KM12 colon
[5] = system: OVCAR-8 ovarian
[6] = system: TK-10 renal
[7] = system: NCI-H460 lung
[8] = system: RPMI-8226 leukemia
[9] = system: COLO 205 colon
[10] = system: SW-620 colon

Row | SMILES | GI50 [1] [µM] | TGI [1] [µM] | GI50 [2] [µM] | TGI [2] [µM] | GI50 [3] [µM] | TGI [3] [µM] | GI50 [4] [µM] | TGI [4] [µM] | GI50 [5] [µM] | TGI [5] [µM] | GI50 [6] [µM] | TGI [6] [µM] | GI50 [7] [µM] | TGI [7] [µM] | GI50 [8] [µM] | TGI [8] [µM] | GI50 [9] [µM] | TGI [9] [µM] | TGI [10] [µM] | GI50 [10] [µM]
1 | CC(=O)CCc1ccc(Oc2c3ccccc3nc3occc23)cc1 | 15.6 | 35.2 | 17.8 | 41.4 | 13.5 | 33.8 | 16.1 | 40 | 15.7 | 41.4 | 15.4 | 43.9 | 15.6 | 31.9 | 13.8 | 53.9 | 16.8 | 33.1 | – | –
2 | NCCCNCc1c2ccccc2c(CNCCCN)c2ccccc12 | – | 82.6 | – | – | – | > 100 | – | 43.9 | – | 33.9 | – | > 100 | – | 32.6 | – | – | – | 22.8 | 26 | –
3 | O=C(N/C(=C\c1cccc([N+](=O)[O-])c1)c1nc2c3c(ccc2[nH]1)C(=O)c1ccccc1C3=O)c1ccccc1 | – | > 100 | – | 78 | – | > 100 | – | > 100 | – | > 100 | – | 82.2 | – | > 100 | – | > 100 | – | – | > 100 | –
4 | CCCCCCCCCCNC(=S)OC | – | > 100 | – | > 100 | – | > 100 | – | – | – | > 100 | – | > 100 | – | > 100 | – | 36.7 | – | – | > 100 | –
5 | COC(=O)CCCCCOS(=O)(=O)c1ccc(C)cc1 | – | > 100 | – | > 100 | – | > 100 | – | > 100 | – | > 100 | – | > 100 | – | > 100 | – | – | – | > 100 | > 100 | –
6 | CC(=O)N(N=O)c1ccc(N(N=O)C(C)=O)cc1 | – | > 100 | – | > 100 | – | > 100 | – | – | – | > 100 | – | – | – | > 100 | – | > 100 | – | > 100 | > 100 | –
7 | CCCCCCCCCCCCCCCCCC1=NC(C)(C)CN1C(C)(C)CO | 1.68 | 3.31 | 1.84 | 3.51 | 1.42 | 3.03 | 1.34 | 2.64 | – | – | 1.83 | 3.34 | 1.31 | 2.8 | 1.8 | 4.37 | 0.407 | 1.38 | 2.9 | 1.48
8 | FC(F)(F)c1cccc(Oc2ccc(Nc3ncnc4ccc(OCCCN5CCOCC5)cc34)cc2Cl)c1 | 1.88 | 5.64 | 1.38 | 15.5 | 1.9 | 4.19 | 2.29 | 5.59 | 3.22 | 21.2 | 2.02 | 9.74 | 1.9 | 3.56 | – | – | 2 | 4.47 | 3.23 | 1.69
9 | Cc1cc(C)c([I+]c2c(C)cc(C)cc2C)c(C)c1 | 0.958 | 2.47 | 1.14 | 2.37 | 0.32 | 1.38 | – | – | 0.286 | 1.09 | 0.712 | 2.06 | 0.846 | 2.3 | – | – | 0.342 | 1.3 | – | –
10 | O=c1cccccc1O | – | > 100 | – | > 100 | – | – | – | > 100 | – | > 100 | – | > 100 | – | > 100 | – | > 100 | – | > 100 | > 100 | –
11 | CO[C@H]1/C=C/O[C@@]2(C)Oc3c(C)c(O)c4c(O)c(c(/C=N/N5C(C)CN(Cc6ccc(C#N)cc6)CC5C)c(O)c4c3C2=O)NC(=O)/C(C)=C\C=C\[C@H](C)[C@H](O)[C@@H](C)[C@@H](O)[C@@H](C)[C@H](OC(C)=O)[C@@H]1C (stereo partly specified) | 6.81 | 17.1 | 9.55 | 23.4 | 6.04 | 12.2 | 5.89 | 12.7 | 10.4 | 38.9 | 7.92 | 18.8 | 5.76 | 14.1 | – | – | 6.82 | 16.4 | 17.5 | 8.15
12 | CCCCSC1CCSc2c1ccc1ccccc21 (stereo unspecified) | – | > 100 | – | > 100 | – | > 100 | – | > 100 | – | > 100 | – | > 100 | – | – | – | > 100 | – | > 100 | – | –
13 | COc1cc(/C=C2\C[C@H]3[C@@H]4CC=C5C[C@@H](O)CC[C@]5(C)[C@H]4CC[C@]3(C)[C@H]2O)ccc1OCCN1CCCCC1 | 0.815 | 2.23 | – | – | 1.13 | 3.32 | 0.912 | 2.12 | 1.57 | > 12.1 | 1.61 | 3.64 | 1.21 | 3.62 | 0.776 | 1.98 | – | – | – | 0.76
14 | Nc1ccc(C(=O)CC2(O)C(=O)Nc3ccccc32)cc1 (stereo unspecified) | – | > 100 | – | > 100 | – | – | – | – | – | > 100 | – | > 100 | – | > 100 | – | > 100 | – | > 100 | > 100 | –
15 | NC(CCl)=NCC12CC3CC(CC(C3)C1)C2 | 0.792 | 15.7 | 4.1 | 16.7 | 1.38 | 12.1 | 0.96 | 3.47 | 0.877 | 19.4 | 1.31 | 9.14 | 0.44 | 4.6 | – | – | 1.15 | 3.19 | 4.37 | 0.338
16 | Cn1nc(-c2ccccc2)c2c(/C=C/c3ccc(F)cc3)onc2c1=O | – | > 100 | – | > 100 | – | > 100 | – | – | – | > 100 | – | > 100 | – | > 100 | – | > 100 | – | > 100 | > 100 | –
17 | Cc1ccc([N+](=O)[O-])cc1NC(=O)C(=O)Cc1nc2ccc(C(=O)c3ccccc3)cc2[nH]c1=O | – | > 100 | – | > 100 | – | – | – | > 100 | – | > 100 | – | > 100 | – | > 100 | – | – | – | > 100 | > 100 | –
18 | CC1(C)CC[C@]2(C(=O)NCCNCCN)CC[C@]3(C)C(=CC[C@@H]4[C@@]5(C)CCC(=O)C(C)(C)[C@@H]5CC[C@]43C)[C@@H]2C1 | – | – | 2.56 | 6.09 | 1.79 | 3.46 | 1.85 | 3.4 | 2.15 | 4.9 | 1.91 | 4.1 | 1.86 | 3.51 | 2.44 | 6.26 | 2.06 | 4.18 | 3.56 | 1.8
